# In patent US10745390B2, “Small molecule activators of mitochondrial function” (THE TRUSTEES OF THE UNIVERSITY OF PENNSYLVANIA, priority 2008, dated 2020):
# Test system: I154F FA cells
# Assay: I154F frataxin point-mutation model, rescue from FAC and/or BSO
# Assay type: cell-based, murine
# Conditions: not given
# Text: 2. Preliminary testing in the I154F frataxin point-mutation model determines whether test compounds can rescue I154F FA cells from lethal concentrations of FAC and/or BSO. Among the mammalian-cell models that have, or recapitulate, the genetic defects underlying FA, by far the most robust (and best validated) is the I154F murine frataxin point-mutation model developed by Puccio and colleagues (Calmels, N. et al.), the first cellular model based on frataxin missense mutations that reproduces spontaneously the defects associated with Friedreich ataxia (PLoS One 4, e6379 (2009)). […] This model is also extremely stable, with phenotypes unchanged after months of continuous culture. In contrast, the mutations in available primary human FA fibroblasts are GAA repeat expansions in the first intron of the FXN gene; occasional cells in which these expansions contract have a growth advantage and take over the culture, diluting the phenotype and increasing variance in various measures of compound efficacy.
# In another screen, testing was conducted in the I154F point-mutation model as described above, to determine whether test compounds could rescue I154F FA cells from lethal or sublethal concentrations of FAC and/or BSO. Effective in this screen were the following compounds: N-[(5-chloro-8-hydroxyquinolin-7-yl)-thiophen-2-ylmethyl]-3-phenylpropanamide, N-[(5-chloro-8-hydroxyquinolin-7-yl)-thiophen-2-ylmethyl]pentanamide, N-[(5-chloro-8-hydroxyquinolin-7-yl)-furan-2-ylmethyl]-3-phenylpropanamide, N-[(5-chloro-8-hydroxyquinolin-7-yl)-furan-2-ylmethyl]propanamide, N-[(5-chloro-8-hydroxyquinolin-7-yl)-furan-2-ylmethyl]pentanamide, N-[(5-chloro-8-hydroxyquinolin-7-yl)-tolyl]-3-phenylpropanamide, N-[(5-chloro-8-hydroxyquinolin-7-yl)-(3-methoxyphenyl)methyl]-3-phenylpropanamide, N-[(5-chloro-8-hydroxyquinolin-7-yl)-(4-dimethylaminophenyl)methyl]-3-phenylpropanamide, N-[(5-chloro-8-hydroxyquinolin-7-yl)-(4-chlorophenyl)methyl]-3-phenylpropanamide, N-[(5-chloro-8-hydroxyquinolin-7-yl)-(3-chlorophenyl)methyl]-3-phenylpropanamide, N-[(5-chloro-8-hydroxyquinolin-7-yl)-(2-chlorophenyl)methyl]-3-phenylpropanamide, N-[(5-chloro-8-hydroxyquinolin-7-yl)-(3,4-dimethoxyphenyl)methyl]-3-phenylpropanamide, N-[(5-chloro-8-hydroxyquinolin-7-yl)-(2,4-dimethoxyphenyl)methyl]-3-phenylpropanamide, N-[(5-chloro-8-hydroxyquinolin-7-yl)-(3,4,5-trimethoxyphenyl)methyl]-3-phenylpropanamide, N-[(5-chloro-8-hydroxyquinolin-7-yl)-(2-bromophenyl)methyl]-3-phenylpropanamide, N-[(5-chloro-8-hydroxyquinolin-7-yl)-p-tolyl-methyl]-3-phenylpropanamide, N-[(5-chloro-8-hydroxyquinolin-7-yl)-(2-hydroxyphenyl)methyl]-3-phenylpropanamide (1a-18), and N-[(5-chloro-8-hydroxyquinolin-7-yl)-(4-methoxyphenyl)methyl]-3-phenylpropanamide.
row,SMILES,rescue of I154F FA cells from lethal or sublethal concentrations of FAC and/or BSO
1,O=C(CCc1ccccc1)NC(c1ccccc1Cl)c1cc(Cl)c2cccnc2c1O (stereo not shown) [N-[(5-chloro-8-hydroxyquinolin-7-yl)-(2-chlorophenyl)methyl]-3-phenylpropanamide],Effective
2,O=C(CCc1ccccc1)NC(c1ccccc1Br)c1cc(Cl)c2cccnc2c1O (stereo not shown) [N-[(5-chloro-8-hydroxyquinolin-7-yl)-(2-bromophenyl)methyl]-3-phenylpropanamide],Effective
3,CN(C)c1ccc(C(NC(=O)CCc2ccccc2)c2cc(Cl)c3cccnc3c2O)cc1 (stereo not shown) [N-[(5-chloro-8-hydroxyquinolin-7-yl)-(4-dimethylaminophenyl)methyl]-3-phenylpropanamide],Effective
4,Cc1ccc(C(NC(=O)CCc2ccccc2)c2cc(Cl)c3cccnc3c2O)cc1 (stereo not shown) [N-[(5-chloro-8-hydroxyquinolin-7-yl)-p-tolyl-methyl]-3-phenylpropanamide],Effective
5,O=C(CCc1ccccc1)NC(c1cccc(Cl)c1)c1cc(Cl)c2cccnc2c1O (stereo not shown) [N-[(5-chloro-8-hydroxyquinolin-7-yl)-(3-chlorophenyl)methyl]-3-phenylpropanamide],Effective
6,COc1cccc(C(NC(=O)CCc2ccccc2)c2cc(Cl)c3cccnc3c2O)c1 (stereo not shown) [N-[(5-chloro-8-hydroxyquinolin-7-yl)-(3-methoxyphenyl)methyl]-3-phenylpropanamide],Effective
7,"COc1ccc(C(NC(=O)CCc2ccccc2)c2cc(Cl)c3cccnc3c2O)c(OC)c1 (stereo not shown) [N-[(5-chloro-8-hydroxyquinolin-7-yl)-(2,4-dimethoxyphenyl)methyl]-3-phenylpropanamide]",Effective
8,CCCCC(=O)NC(c1ccco1)c1cc(Cl)c2cccnc2c1O (stereo not shown) [N-[(5-chloro-8-hydroxyquinolin-7-yl)-furan-2-ylmethyl]pentanamide],Effective
9,"COc1cc(C(NC(=O)CCc2ccccc2)c2cc(Cl)c3cccnc3c2O)cc(OC)c1OC (stereo not shown) [N-[(5-chloro-8-hydroxyquinolin-7-yl)-(3,4,5-trimethoxyphenyl)methyl]-3-phenylpropanamide]",Effective
10,"COc1ccc(C(NC(=O)CCc2ccccc2)c2cc(Cl)c3cccnc3c2O)cc1OC (stereo not shown) [N-[(5-chloro-8-hydroxyquinolin-7-yl)-(3,4-dimethoxyphenyl)methyl]-3-phenylpropanamide]",Effective
11,O=C(CCc1ccccc1)NC(c1ccc(Cl)cc1)c1cc(Cl)c2cccnc2c1O (stereo not shown) [N-[(5-chloro-8-hydroxyquinolin-7-yl)-(4-chlorophenyl)methyl]-3-phenylpropanamide],Effective
12,CCC(=O)NC(c1ccco1)c1cc(Cl)c2cccnc2c1O (stereo not shown) [N-[(5-chloro-8-hydroxyquinolin-7-yl)-furan-2-ylmethyl]propanamide],Effective
13,O=C(CCc1ccccc1)NC(c1ccccc1O)c1cc(Cl)c2cccnc2c1O (stereo not shown) [N-[(5-chloro-8-hydroxyquinolin-7-yl)-(2-hydroxyphenyl)methyl]-3-phenylpropanamide],Effective
14,O=C(CCc1ccccc1)NC(c1ccco1)c1cc(Cl)c2cccnc2c1O (stereo not shown) [N-[(5-chloro-8-hydroxyquinolin-7-yl)-furan-2-ylmethyl]-3-phenylpropanamide],Effective
15,COc1ccc(C(NC(=O)CCc2ccccc2)c2cc(Cl)c3cccnc3c2O)cc1 (stereo not shown) [N-[(5-chloro-8-hydroxyquinolin-7-yl)-(4-methoxyphenyl)methyl]-3-phenylpropanamide],Effective

# Test system: yeast lacking Yfh1p
# Assay: Yeast-based screening assay (WST-1 tetrazolium dye reduction)
# Assay type: cell-based
# Conditions: glycerol medium, 72 h, OD450, single dose 50 uM, activity threshold >1.32 fold increase in absorbance
# Experimental: The aim of this assay is to identify compounds that can improve mitochondrial function in yeast lacking Yfh1p grown in a non-fermentable growth medium. The yeast Yfh1p expression construct used in this study has a galactose-inducible, glucose-repressible promoter driving Yfh1p production. Yfh1p is expressed when yeast are grown in the presence of galactose and inhibited when they are grown in the presence of dextrose. Growing the cells in the presence of dextrose not only turns off the expression of Yfh1p, but also leads to the depletion of Yfh1p in the cells. Transferring the Yfh1p-depleted cells into a non-fermentable, glycerol-based medium dictates that the yeast must use an oxidative pathway. […] Cleavage of the tetrazolium salt to formazan is accompanied by an increase in absorbance at 450 nm.
# Compounds in the single dose assay were evaluated on the basis of Fold Induction compared to yeast only, and those in the dose response assay on percent activation, i.e. percent induction of tetrazolium dye reduction in yeast grown in a non-fermentable growth medium. Percent activation was calculated using the optical density in control wells with cells treated with positive control compound (25 uM methyl 4-(1, 2, 4, 5-tetraazin-3-yl) phenyl ether (MLSMR External ID: MLS000550612; PubChem SID: 14718875)) as full induction of tetrazolium dye reduction (100% activation), and wells with cells grown in medium without methyl 4-(1, 2, 4, 5-tetraazin-3-yl) phenyl ether as an indicator of 0% activation. Library compounds were screened at 50 uM. From the 50 uM single dose assay, 1250 compounds with significant tetrazolium dye reduction were selected for confirmatory dose response assay. These compounds were screened in a 10-point dilution series ranging from 0.01 to 100 uM.
# The following screening protocol was followed. Yeast cells containing an inducible/repressible promoter for Yfh1p expression were cultured in induction medium (Yfh1 on) with Galactose as the carbon source, and then shifted to repression medium (Yfh1 off) with Dextrose as the carbon source (for 24 hours) to allow Yfh1 protein to decay. The cells were then incubated for 24 h in respiration-only medium (Yfh1 off) with Glycerol as the carbon source to allow cells to equilibrate, and then plated in 384 well plates in respiration-only medium (Yfh1 off) with glycerol as carbon source, in the presence of Tetrazolium dye (WST-1) for 72 hours.
# Preparation of Assay • 1. Cells were streaked out on a YPGal agar plate and grown inverted for 3 days at 30 C. • 2. A colony was selected and 10 mL of YPGal medium inoculated and grown over night at 30 C with shaking. • 3. The cells were counted on a coulter counter, centrifuged at 1400 g for 5 min in dextrose (CSMM-D) medium, washed twice to remove all galactose, and resuspended in CSMM-D medium at a cell density of 2 to the power of 5 cells/mL. • 4. Frozen stocks were prepared at this point, in dextrose medium. For these dextrose stock solutions, enough culture was grown in dextrose media over night with shaking at 30 C, to get a cell density of ˜2 to the power of 7 cells/mL. The cells were centrifuged at 1400 g for 5 min and the pellet resuspended in glycerol freezing medium at a cell density of 2 to the power of 8 cells/mL. • 5. The day before the screen, frozen culture was thawed at room temperature and resuspended in glycerol (CSMM-G) medium. • 6. The culture was grown over night at 30 C with shaking and the cells counted and diluted in CSMM-G medium for a final cell density of 4 to the power of 6 cells/mL. • 7. Methyl 4-(1, 2, 4, 5-tetraazin-3-yl) phenyl ether (positive control), CSMM-G medium alone (negative control) and compounds were plated with DMSO at 200× concentration (final concentrations: methyl 4-(1, 2, 4, 5-tetraazin-3-yl) phenyl ether 25 uM, compounds 50 uM, DMSO 0.5%) in 384-well plates: 125 nL/well. For the dose response assay, compounds were plated in a 10-point dilution series ranging from 0.01 to 100 uM, at 1% DMSO. • 8. […]
row,SMILES,active in the screen (tetrazolium dye reduction)
1,CCC(=O)NC(c1ccc(OC)cc1)c1cc(Cl)c2cccnc2c1O (stereo not shown) [N-[(5-chloro-8-hydroxyquinolin-7-yl)-(4-methoxyphenyl)methyl]propanamide],active
2,CCCCC(=O)NC(c1ccccc1OC)c1ccc2cccnc2c1O (stereo not shown) [N-[(8-hydroxyquinolin-7-yl)-(2-methoxyphenyl)methyl]pentanamide],active
3,CCCC(=O)NC(c1cccs1)c1cc([N+](=O)[O-])c2cccnc2c1O (stereo not shown) [N-[(8-hydroxy-5-nitroquinolin-7-yl)-thiophen-2-ylmethyl]butanamide],active
4,CCC(=O)NC(c1ccc(C)cc1)c1cc([N+](=O)[O-])c2cccnc2c1O (stereo not shown) [N-[(8-Hydroxy-5-nitro-quinolin-7-yl)-p-tolyl-methyl]-propionamide],active
5,CC(=O)NC(c1ccc(C)cc1)c1cc([N+](=O)[O-])c2cccnc2c1O (stereo not shown) [N-[{8-hydroxy-5-nitro-7-quinolinyl}(4-methylphenyl)methyl]acetamide],active
6,"CCC(=O)NC(c1ccc(OC)c(OC)c1)c1cc(Cl)c2cccnc2c1O (stereo not shown) [N-[(5-chloro-8-hydroxyquinolin-7-yl)-(3,4-dimethoxyphenyl)methyl]propanamide]",active
7,CC(=O)NC(c1cccs1)c1cc([N+](=O)[O-])c2cccnc2c1O (stereo not shown) [N-[(8-hydroxy-5-nitro-quinolin-7-yl)-thiophen-2-yl-methyl]-acetamide],active
